± gives the expanded uncertainty stated by the source.
Assay: refractive index (other wavelength) (dimensionless); xn = mol fraction of the nth substance listed
Details: 101.3 kPa, Liquid, Wavelength=632.8 nm, Standard Abbe refractometry

CCCCCCCCCCCCCCCC [hexadecane] + COC(=O)OC
Details	refractive index
308.19 K, x2 = 0.132	1.4228 ± 0.0007
308.21 K, x2 = 0	1.427 ± 0.0007
308.29 K, x2 = 0.397	1.4128 ± 0.0007
308.35 K, x2 = 0.219	1.4197 ± 0.0007
308.4 K, x2 = 0.291	1.417 ± 0.0007
309.24 K, x2 = 0	1.4265 ± 0.0007
309.25 K, x2 = 0.132	1.4224 ± 0.0007
309.32 K, x2 = 0.397	1.4123 ± 0.0007
309.54 K, x2 = 0.291	1.4164 ± 0.0007
309.66 K, x2 = 0.219	1.4191 ± 0.0007
310.21 K, x2 = 0	1.4261 ± 0.0007
310.33 K, x2 = 0.132	1.4219 ± 0.0007
310.38 K, x2 = 0.397	1.4118 ± 0.0007
310.83 K, x2 = 0.291	1.4158 ± 0.0007
311.09 K, x2 = 0.219	1.4185 ± 0.0007
311.24 K, x2 = 0	1.4256 ± 0.0007
311.39 K, x2 = 0.132	1.4214 ± 0.0007
311.42 K, x2 = 0.397	1.4113 ± 0.0007
312.09 K, x2 = 0.291	1.4153 ± 0.0007
312.18 K, x2 = 0.6	1.4005 ± 0.0007
312.2 K, x2 = 0.517	1.4052 ± 0.0007
312.3 K, x2 = 0	1.4252 ± 0.0007
312.43 K, x2 = 0.132	1.421 ± 0.0007
312.46 K, x2 = 0.397	1.4108 ± 0.0007
312.54 K, x2 = 0.219	1.4179 ± 0.0007
313.16 K, x2 = 0.517	1.4048 ± 0.0007
313.32 K, x2 = 0.6	1.3999 ± 0.0007
313.33 K, x2 = 0.291	1.4147 ± 0.0007
313.34 K, x2 = 0	1.4248 ± 0.0007
313.51 K, x2 = 0.132	1.4206 ± 0.0007
313.53 K, x2 = 0.397	1.4104 ± 0.0007
313.95 K, x2 = 0.219	1.4173 ± 0.0007
314.26 K, x2 = 0.517	1.4043 ± 0.0007
314.44 K, x2 = 0	1.4244 ± 0.0007
314.44 K, x2 = 0.6	1.3994 ± 0.0007
314.55 K, x2 = 0.132	1.4201 ± 0.0007
314.62 K, x2 = 0.397	1.41 ± 0.0007
314.63 K, x2 = 0.291	1.4142 ± 0.0007
315.34 K, x2 = 0.517	1.4038 ± 0.0007
315.5 K, x2 = 0.6	1.3989 ± 0.0007
315.54 K, x2 = 0	1.4239 ± 0.0007
315.57 K, x2 = 0.132	1.4197 ± 0.0007
315.59 K, x2 = 0.219	1.4166 ± 0.0007
315.71 K, x2 = 0.397	1.4094 ± 0.0007
315.92 K, x2 = 0.291	1.4136 ± 0.0007
316.19 K, x2 = 0.689	1.3925 ± 0.0007
316.42 K, x2 = 0.517	1.4033 ± 0.0007
316.45 K, x2 = 0.804	1.3827 ± 0.0007
316.55 K, x2 = 0	1.4235 ± 0.0007
316.56 K, x2 = 0.6	1.3984 ± 0.0007
316.64 K, x2 = 0.132	1.4192 ± 0.0007
316.73 K, x2 = 0.397	1.409 ± 0.0007
316.86 K, x2 = 0.872	1.3751 ± 0.0007
317.02 K, x2 = 0.689	1.3921 ± 0.0007
317.08 K, x2 = 0.219	1.416 ± 0.0007
317.2 K, x2 = 0.291	1.4131 ± 0.0007
317.25 K, x2 = 0.804	1.3823 ± 0.0007
317.51 K, x2 = 0.517	1.4028 ± 0.0007
317.56 K, x2 = 0	1.4231 ± 0.0007
317.67 K, x2 = 0.132	1.4188 ± 0.0007
317.67 K, x2 = 0.6	1.3979 ± 0.0007
317.74 K, x2 = 0.872	1.3747 ± 0.0007
317.81 K, x2 = 0.397	1.4085 ± 0.0007
317.89 K, x2 = 0.689	1.3917 ± 0.0007
318.06 K, x2 = 0.804	1.3819 ± 0.0007
318.49 K, x2 = 0.291	1.4125 ± 0.0007
318.5 K, x2 = 0.219	1.4154 ± 0.0007
318.55 K, x2 = 0.872	1.3743 ± 0.0007
318.61 K, x2 = 0	1.4226 ± 0.0007
318.74 K, x2 = 0.132	1.4183 ± 0.0007
318.84 K, x2 = 0.689	1.3913 ± 0.0007
318.89 K, x2 = 0.397	1.408 ± 0.0007
318.91 K, x2 = 0.804	1.3815 ± 0.0007
319.4 K, x2 = 0.872	1.3739 ± 0.0007
319.74 K, x2 = 0.689	1.3909 ± 0.0007
319.79 K, x2 = 0.804	1.381 ± 0.0007
320.28 K, x2 = 0.872	1.3735 ± 0.0007
320.64 K, x2 = 0.804	1.3806 ± 0.0007
